Marks after values point to notes of the source that are not given here.
System: male Sprague-Dawley rats
Experiment: EEG/EMG/Tcore/LMA telemetry sleep study 3 (almorexant vs ZOL)
Type: in vivo, rat
Conditions: for REM:NR ratio: 6 h after dosing
Method: All rodent electroencephalograph (EEG) studies were performed at SRI International. Three groups of eight male Sprague-Dawley rats (300±25 g; Charles River, Wilmington, MA) were implanted with chronic recording devices (F40-EET, Data Sciences Inc., St Paul, MN) for continuous recordings of EEG, electromyograph (EMG), core body temperature (Tcore), and LMA via telemetry as previously described. Data recording and scoring were performed as previously reported (see also Supplemental Material and Methods). The EEG and EMG data were scored in 10 sec epochs for waking (W), rapid eye movement sleep (REM), and non-REM sleep (NR). Tcore and LMA (counts per minute) were analyzed as hourly means. Data from the EEG studies are reported in hourly means such that the hourly time ZT1 refers to the hour between time points ZT0 and ZT1.
For each of the three separate studies, a repeated measures counter-balanced design was employed in which each rat received five separate dosings. […] All dosings were administered ip in a volume of 2 ml/kg. A minimum of 3 d elapsed between doses. Dosing occurred during the middle of the rats’ normal active period at the start of ZT19 and was typically completed within 10 min. Animals were continuously recorded for 6 h prior to dosing and for 18 h following dosing.

[1] = 6 h Average, almorexant 10 mg/kg ip
[2] = 6 h Total, almorexant 10 mg/kg ip

Compound: CNC(=O)[C@@H](c1ccccc1)N1CCc2cc(OC)c(OC)cc2[C@@H]1CCc1ccc(C(F)(F)F)cc1 [almorexant, (2R)-2-[(1S)-6,7-Dimethoxy-1-[2-(4-trifluoromethyl-phenyl)-ethyl]-3,4-dihydro-1H-isoquinolin-2-yl]-N-methyl-2-phenyl-acetamide]
- cumulative REM (in words) (30 mg/kg ip, first 2 h): Cumulative REM also increased
- cumulative REM (in words) (100 mg/kg ip, 6 h period): Cumulative REM also increased
- numbers of W and NR bouts (in words) (100 mg/kg ip, ZT19, ZT20, ZT22-ZT24): increased numbers of W and NR bouts
- W bout duration (in words) (100 mg/kg ip, ZT22, vs vehicle): decreased
- number of REM bouts (in words) (100 mg/kg ip, ZT22-ZT24): increased
- LMA (in words) (100 mg/kg ip, across 6 h, vs vehicle): LMA was decreased
- NR latency (in words) (30 and 100 mg/kg ip at ZT19, vs vehicle): reduced NR latency
- cumulative NR (in words) (30 and 100 mg/kg ip, 2, 4 and 6 h): increased cumulative NR
- NR bout duration (6 h Average, 30 mg/kg ip): 1.25 ±0.09^+
- REM bout duration (6 h Average, 30 mg/kg ip): 1.32 ± 0.10
- W bout duration (6 h Average, 30 mg/kg ip): 2.53 ± 0.41
- NR bout duration (6 h Average, 100 mg/kg ip): 1.20 ± 0.08^+
- REM bout duration (6 h Average, 100 mg/kg ip): 1.20 ± 0.12
- W bout duration (6 h Average, 100 mg/kg ip): 1.59 ± 0.20*^+
- NR bout duration [1]: 1.22 ± 0.08^+
- REM bout duration [1]: 1.11 ± 0.13
- W bout duration [1]: 4.37 ± 1.09
- Number of NR bouts (6 h Total, 30 mg/kg ip): 103.0 ± 9.60*^+
- Number of REM bouts (6 h Total, 30 mg/kg ip): 20.38 ± 3.12^+
- Number of NR bouts (6 h Total, 100 mg/kg ip): 127.0 ± 6.02*^+
- Number of REM bouts (6 h Total, 100 mg/kg ip): 27.75 ± 3.26*^+
- Number of W bouts (6 h Total, 100 mg/kg ip): 109.38 ±7.91*^+
- Number of NR bouts [2]: 82.00 ±9.10
- Number of REM bouts [2]: 18.00 ± 3.80^+
- Number of W bouts [2]: 67.50 ± 8.89
- REM:NR ratio (10 mg/kg ip (almorexant)): 0.19±0.026^+
- REM:NR ratio (30 mg/kg ip): 0.20±0.022^+
- REM:NR ratio (100 mg/kg ip): 0.21±0.021^+
- NR during the subsequent light period (in words) (ZT1 and ZT6, 30 mg/kg ip, vs vehicle): NR increased
- NR bout duration (ZT19, 30 mg/kg ip): 1.33 ± 0.14^+
- Number of NR bouts (ZT19, 30 mg/kg ip): 15.00 ± 1.83
- Number of REM bouts (ZT19, 30 mg/kg ip): 2.63 ± 0.50*^+
- Number of W bouts (ZT19, 30 mg/kg ip): 10.38 ± 1.53
- REM bout duration (ZT19, 30 mg/kg ip): 1.52 ± 0.26*^+
- W bout duration (ZT19, 30 mg/kg ip): 4.69 ± 1.87
- NR bout duration (ZT19, 100 mg/kg ip): 1.50 ± 0.14*^+
- Number of NR bouts (ZT19, 100 mg/kg ip): 14.00 ± 1.25
- Number of REM bouts (ZT19, 100 mg/kg ip): 1.25 ± 0.49
- Number of W bouts (ZT19, 100 mg/kg ip): 12.25 ± 1.74
- REM bout duration (ZT19, 100 mg/kg ip): 1.44 ± 0.38*^+
- W bout duration (ZT19, 100 mg/kg ip): 3.31 ± 0.65
- NR bout duration (ZT19, almorexant 10 mg/kg ip): 1.27 ± 0.15^+
- Number of NR bouts (ZT19, almorexant 10 mg/kg ip): 8.63 ± 1.82
- Number of REM bouts (ZT19, almorexant 10 mg/kg ip): 1.75 ± 0.53
- Number of W bouts (ZT19, almorexant 10 mg/kg ip): 6.63 ± 1.50
- REM bout duration (ZT19, almorexant 10 mg/kg ip): 0.76 ± 0.19*^+
- W bout duration (ZT19, almorexant 10 mg/kg ip): 9.90 ± 3.21
- NR bout duration (ZT20, 30 mg/kg ip): 1.34 ± 0.08^+
- Number of NR bouts (ZT20, 30 mg/kg ip): 19.75 ± 2.25
- Number of REM bouts (ZT20, 30 mg/kg ip): 4.38 ± 1.08^+
- Number of W bouts (ZT20, 30 mg/kg ip): 16.38 ± 1.68^+
- REM bout duration (ZT20, 30 mg/kg ip): 1.37 ± 0.05^+
- W bout duration (ZT20, 30 mg/kg ip): 1.96 ± 0.75
- NR bout duration (ZT20, 100 mg/kg ip): 1.37 ± 0.12^+
- Number of NR bouts (ZT20, 100 mg/kg ip): 22.25 ± 2.36
- Number of REM bouts (ZT20, 100 mg/kg ip): 3.00 ± 1.20
- Number of W bouts (ZT20, 100 mg/kg ip): 18.38 ± 1.40*^+
- REM bout duration (ZT20, 100 mg/kg ip): 1.08 ± 0.15^+
- W bout duration (ZT20, 100 mg/kg ip): 1.41 ± 0.13^+
- NR bout duration (ZT20, almorexant 10 mg/kg ip): 1.31 ± 0.09^+
- Number of NR bouts (ZT20, almorexant 10 mg/kg ip): 19.38 ± 2.38
- Number of REM bouts (ZT20, almorexant 10 mg/kg ip): 4.13 ± 0.97^+
- Number of W bouts (ZT20, almorexant 10 mg/kg ip): 14.88 ± 2.05^+
- REM bout duration (ZT20, almorexant 10 mg/kg ip): 1.16 ± 0.17^+
- W bout duration (ZT20, almorexant 10 mg/kg ip): 2.37 ± 0.70
- NR bout duration (ZT21, 30 mg/kg ip): 1.27 ± 0.09^+
- Number of NR bouts (ZT21, 30 mg/kg ip): 20.75 ± 1.39
- Number of REM bouts (ZT21, 30 mg/kg ip): 5.25 ± 1.16^+
- Number of W bouts (ZT21, 30 mg/kg ip): 18.38 ± 1.39^+
- REM bout duration (ZT21, 30 mg/kg ip): 1.26 ± 0.14
- W bout duration (ZT21, 30 mg/kg ip): 1.43 ± 0.30^+
- NR bout duration (ZT21, 100 mg/kg ip): 1.31 ± 0.15^+
- Number of NR bouts (ZT21, 100 mg/kg ip): 23.75 ± 1.47
- Number of REM bouts (ZT21, 100 mg/kg ip): 6.75 ± 1.06^+
- Number of W bouts (ZT21, 100 mg/kg ip): 20.88 ± 2.21^+
- REM bout duration (ZT21, 100 mg/kg ip): 1.28 ± 0.18
- W bout duration (ZT21, 100 mg/kg ip): 0.93 ± 0.15^+
- NR bout duration (ZT21, almorexant 10 mg/kg ip): 1.17 ± 0.16^+
- Number of NR bouts (ZT21, almorexant 10 mg/kg ip): 15.88 ± 2.00
- Number of REM bouts (ZT21, almorexant 10 mg/kg ip): 4.75 ± 1.13^+
- Number of W bouts (ZT21, almorexant 10 mg/kg ip): 13.50 ± 1.73
- REM bout duration (ZT21, almorexant 10 mg/kg ip): 1.40 ± 0.16
- W bout duration (ZT21, almorexant 10 mg/kg ip): 3.03 ± 0.90
- NR bout duration (ZT22, 30 mg/kg ip): 1.04 ± 0.11^+
- Number of NR bouts (ZT22, 30 mg/kg ip): 17.25 ± 2.58
- Number of REM bouts (ZT22, 30 mg/kg ip): 2.88 ± 0.74
- Number of W bouts (ZT22, 30 mg/kg ip): 14.88 ± 1.99
- REM bout duration (ZT22, 30 mg/kg ip): 1.26 ± 0.17
- W bout duration (ZT22, 30 mg/kg ip): 3.07 ± 0.83
- NR bout duration (ZT22, 100 mg/kg ip): 1.12 ± 0.15
- Number of NR bouts (ZT22, 100 mg/kg ip): 23.88 ± 1.34
- Number of REM bouts (ZT22, 100 mg/kg ip): 7.38 ± 1.49*^+
- Number of W bouts (ZT22, 100 mg/kg ip): 20.00 ± 0.89*^+
- REM bout duration (ZT22, 100 mg/kg ip): 1.07 ± 0.18
- W bout duration (ZT22, 100 mg/kg ip): 1.13 ± 0.15^+
- NR bout duration (ZT22, almorexant 10 mg/kg ip): 1.07 ± 0.19^+
- Number of NR bouts (ZT22, almorexant 10 mg/kg ip): 14.38 ± 2.58
- Number of REM bouts (ZT22, almorexant 10 mg/kg ip): 2.88 ± 0.81
- Number of W bouts (ZT22, almorexant 10 mg/kg ip): 13.00 ± 2.92
- REM bout duration (ZT22, almorexant 10 mg/kg ip): 1.05 ± 0.36
- W bout duration (ZT22, almorexant 10 mg/kg ip): 4.74 ± 1.57
- NR bout duration (ZT23, 30 mg/kg ip): 1.03 ± 0.12
- Number of NR bouts (ZT23, 30 mg/kg ip): 16.63 ± 2.88
- Number of REM bouts (ZT23, 30 mg/kg ip): 2.88 ± 0.93
- Number of W bouts (ZT23, 30 mg/kg ip): 15.13 ± 2.71
- REM bout duration (ZT23, 30 mg/kg ip): 0.91 ± 0.19
- W bout duration (ZT23, 30 mg/kg ip): 5.53 ± 3.36
- NR bout duration (ZT23, 100 mg/kg ip): 0.90 ± 0.07
- Number of NR bouts (ZT23, 100 mg/kg ip): 23.13 ± 2.61
- Number of REM bouts (ZT23, 100 mg/kg ip): 4.00 ± 0.82
- Number of W bouts (ZT23, 100 mg/kg ip): 21.00 ± 3.02
- REM bout duration (ZT23, 100 mg/kg ip): 1.16 ± 0.12
- W bout duration (ZT23, 100 mg/kg ip): 2.15 ± 0.68
- NR bout duration (ZT23, almorexant 10 mg/kg ip): 1.11 ± 0.19
- Number of NR bouts (ZT23, almorexant 10 mg/kg ip): 8.00 ± 1.68
- Number of REM bouts (ZT23, almorexant 10 mg/kg ip): 1.25 ± 0.65
- Number of W bouts (ZT23, almorexant 10 mg/kg ip): 6.63 ± 1.88
- REM bout duration (ZT23, almorexant 10 mg/kg ip): 0.61 ± 0.17
- W bout duration (ZT23, almorexant 10 mg/kg ip): 12.59 ± 3.87
- NR bout duration (ZT24, 30 mg/kg ip): 1.50 ± 0.24
- Number of NR bouts (ZT24, 30 mg/kg ip): 19.88 ± 2.63
- Number of REM bouts (ZT24, 30 mg/kg ip): 2.38 ± 0.98
- Number of W bouts (ZT24, 30 mg/kg ip): 12.00 ± 2.70
- REM bout duration (ZT24, 30 mg/kg ip): 0.98 ± 0.15
- W bout duration (ZT24, 30 mg/kg ip): 4.32 ± 1.06
- NR bout duration (ZT24, 100 mg/kg ip): 1.14 ± 0.08
- Number of NR bouts (ZT24, 100 mg/kg ip): 19.88 ± 1.14
- Number of REM bouts (ZT24, 100 mg/kg ip): 5.25 ± 1.08*^+
- Number of W bouts (ZT24, 100 mg/kg ip): 15.88 ± 1.14
- REM bout duration (ZT24, 100 mg/kg ip): 1.16 ± 0.14^+
- W bout duration (ZT24, 100 mg/kg ip): 1.92 ± 0.34
- NR bout duration (ZT24, almorexant 10 mg/kg ip): 1.14 ± 0.14
- Number of NR bouts (ZT24, almorexant 10 mg/kg ip): 15.25 ± 2.30
- Number of REM bouts (ZT24, almorexant 10 mg/kg ip): 3.25 ± 0.94
- Number of W bouts (ZT24, almorexant 10 mg/kg ip): 12.00 ± 2.10
- REM bout duration (ZT24, almorexant 10 mg/kg ip): 1.02 ± 0.21^+
- W bout duration (ZT24, almorexant 10 mg/kg ip): 4.00 ± 1.17
- REM bout duration (in words) (first hour after treatment): significantly increased REM bout duration
- Tcore (in words) (high concentration tested, across 6 h): decreased Tcore
- REM bouts compared to vehicle (highest dose (100 mg/kg), latter half of the dark period): 2 to 3 fold
- latency to REM sleep (in words) (only 30 mg/kg ip at ZT19, vs vehicle): decreased latency to REM sleep
